In patent US11667602B2, “Compounds and their use” (AstraZeneca AB, priority 2020, dated 2023):

Key:
[1] = Human Plasma Protein Binding (Test B); format: in vitro ADME; details: fraction unbound (fu)
In short: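 Human plasma protein binding run per the published Wernevik et al. (2020) integrated DMPK panel protocol. Values are fraction unbound (fu, % free); repeat runs averaged arithmetically.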

[2] = Human Liver Microsomal Stability (Test C); format: in vitro ADME; details: human, liver microsomes
In short: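 Human liver microsome incubation per the Wernevik et al. integrated DMPK panel protocol. Intrinsic clearance reported as CLint in μl/min/mg protein, averaged arithmetically over repeat runs.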

[3] = Human Hepatocyte Stability (Test D); format: in vitro ADME; details: human, cryopreserved pooled human hepatocytes (LiverPool 10-Donor), geometric mean if run multiple times
In short: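 Pooled 10-donor cryopreserved human hepatocytes (≥80% viable) in L-15 medium at 0.25×10^6 cells per 0.25 mL well. Compound added from 100 μM acetonitrile solution; incubated at 37 °C with shaking, acetonitrile-quenched, LC-MS analysed. Clint (μL/min/10^6 cells) from ln % parent vs time slope; geometric mean of repeat runs.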

human RXFP1 = biological target: T1, human RXFP1 (Homo sapiens, UniProt Q9HBX9); assay: Human RXFP1 Phospho-ERK Assay (Test H); format: cell-based; set-up: expressed in transfected cells; details: HEK293s cells stably transfected with human RXFP1; phospho-ERK (Thr202/Tyr204) HTRF, 5 min stimulation; read-out: Test H phospo-ERK assay EC50
T1 sequence (Q9HBX9 1-757): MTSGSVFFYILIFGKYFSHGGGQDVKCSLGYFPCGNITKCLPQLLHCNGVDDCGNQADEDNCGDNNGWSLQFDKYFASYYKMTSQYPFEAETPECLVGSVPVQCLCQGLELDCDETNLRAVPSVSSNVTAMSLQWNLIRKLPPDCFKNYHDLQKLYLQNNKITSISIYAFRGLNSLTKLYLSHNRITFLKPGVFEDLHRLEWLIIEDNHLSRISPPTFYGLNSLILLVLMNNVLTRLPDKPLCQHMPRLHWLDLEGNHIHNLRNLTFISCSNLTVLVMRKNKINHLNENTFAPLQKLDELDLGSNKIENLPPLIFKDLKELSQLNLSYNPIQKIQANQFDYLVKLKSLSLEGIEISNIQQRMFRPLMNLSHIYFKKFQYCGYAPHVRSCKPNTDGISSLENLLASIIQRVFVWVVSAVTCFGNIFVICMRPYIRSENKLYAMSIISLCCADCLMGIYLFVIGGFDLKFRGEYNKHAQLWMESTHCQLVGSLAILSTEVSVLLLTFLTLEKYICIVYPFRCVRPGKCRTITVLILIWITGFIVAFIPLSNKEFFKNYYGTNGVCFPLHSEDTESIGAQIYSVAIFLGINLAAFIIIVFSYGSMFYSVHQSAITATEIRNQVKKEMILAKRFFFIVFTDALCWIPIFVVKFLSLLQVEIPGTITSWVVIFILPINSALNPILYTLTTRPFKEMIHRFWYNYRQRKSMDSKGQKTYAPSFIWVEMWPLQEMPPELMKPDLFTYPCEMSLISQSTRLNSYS
From the text: Cells: HEK293s cells stably transfected with human RXFP1 in pIRESneo3 was employed.

Row | Compound | Test B Human Plasma Protein Binding (% free) [1] [% free] | microsomal CLint [2] [µL/min/mg] | hepatocyte CLint at 1 µM [3] [µL/min/1e6 cells] | EC50 (human RXFP1) [nM]
1 | COc1cc(F)c(O[C@H]2CC[C@@H](C(=O)O)CC2)cc1C(=O)N[C@@H]1[C@H]2CC[C@H](C2)[C@@H]1C(=O)Nc1ccc(F)c(S(F)(F)(F)(F)F)c1 [Example 433] | 0.38 | 43 | 14 | –
2 | COc1cc(F)c(O[C@H]2CC[C@@](C)(C(=O)O)CC2)cc1C(=O)N[C@@H]1[C@H]2CC[C@H](C2)[C@@H]1C(=O)Nc1ccc(F)c(S(F)(F)(F)(F)F)c1 [Example 353] | <0.23 | 61 | 21 | 0.36
3 | COc1cc(F)c(O[C@H]2CC[C@@](C)(C(=O)O)CC2)cc1C(=O)N[C@@H]1[C@H]2CC[C@H](C2)[C@@H]1C(=O)Nc1cccc(S(=O)(=O)C(F)(F)F)c1 [Example 208, (1S,4s)-4-(2-Fluoro-4-methoxy-5-(((1S,2R,3S,4R)-3-((3-((trifluoromethyl)sulfonyl)phenyl)carbamoyl)bicyclo[2.2.1]heptan-2-yl)carbamoyl)phenoxy)-1-methylcyclohexane-1-carboxylic acid] | 1 | 54 | 15 | 1.2
4 | COc1cc(F)c(-c2ccc(C(=O)O)cc2)cc1C(=O)N[C@H]1[C@@H](C(=O)Nc2cccc(S(=O)(=O)C(F)(F)F)c2)[C@@H]2C=C[C@H]1C2 (single isomer, unassigned) [Example 552] | 0.060 | 7.2 | 12 | 81
